Biological target: T1, CYP2C9 (Homo sapiens, UniProt P11712)
T1 construct: human liver microsomes
Assay: inhibition of S-warfarin 7-hydroxylation (CYP2C9 marker) in human liver microsomes, HPLC-FLD
Assay type: biochemical

T1 sequence (P11712 whole entry): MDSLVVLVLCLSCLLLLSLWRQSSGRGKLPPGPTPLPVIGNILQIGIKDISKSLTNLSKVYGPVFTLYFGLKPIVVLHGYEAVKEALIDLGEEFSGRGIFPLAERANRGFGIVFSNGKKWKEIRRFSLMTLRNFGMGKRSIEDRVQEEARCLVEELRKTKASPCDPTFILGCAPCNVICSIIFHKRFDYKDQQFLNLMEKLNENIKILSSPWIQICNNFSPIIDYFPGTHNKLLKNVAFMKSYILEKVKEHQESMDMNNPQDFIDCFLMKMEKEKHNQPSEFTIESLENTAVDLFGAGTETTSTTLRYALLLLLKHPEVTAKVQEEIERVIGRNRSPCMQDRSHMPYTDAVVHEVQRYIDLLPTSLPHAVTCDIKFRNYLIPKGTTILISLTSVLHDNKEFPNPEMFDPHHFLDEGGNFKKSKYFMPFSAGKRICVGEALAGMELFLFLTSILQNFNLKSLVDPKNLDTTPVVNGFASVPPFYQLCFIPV

O=C(/C=C/C=C/c1ccc2c(c1)OCO2)N1CCCCC1 [piperine]
IC50: 14.2 ± 1.1 µM

Reference: article PMC11130653, “Development of a rapid HPLC-fluorescence method for monitoring warfarin metabolites formation: In vitro studies for evaluating the effect of piperine on warfarin metabolism and plasma coagulation” (Heliyon, 2024)
